In assay [1] the test system is C57BL/6J mice. Briefly: Contextual fear conditioning (associative learning) in wild type mice. It counts as in vivo. Conditions: for associative learning, contextual fear conditioning paradigm: wildtype mice, chronic treatment for 10-21 days. An excerpt: Learning tests: All behavioral testing is described in Fischer et al. (3).
Mechanism underlying EE. Other than a few genes involved in synaptic function, relatively little is known about the mechanism underlying EE (12-14). Since histone acetylation, an epigenetic mechanism regulating gene expression via chromatin remodeling, has recently been implicated in synaptic plasticity and learning behavior (15-18), the induction of a transcriptional program by EE that leads to activation of plasticity genes was evaluated. Wild type mice were subjected to EE and hippocampal and cortical brain lysates were obtained 3, 24 h or 2 weeks later (n=3/group) by acid extraction and probed with antibodies detecting histone-tail modification that indicate active chromatin. Increases in hippocampal H3 (K-9, K14) and H4 (K-5) and in cortical H3 (K-9) and H4 (K-5) acetylation were observed. […] No changes in H4 acetylation were observed when the Ac-H4 (K,8,12,16) antibody was used, which is likely due to the fact that H4-K16 is a marker of condensed chromatin. EE induced hippocampal and cortical histone 3 (H3) and histone 4 (H4) acetylation and […] as soon as 3 hours after treatment (FIGS. 3a, b). […] To investigate whether inhibition of HDACs mimics the effects of EE, SB was administered daily [ip] into wild type mice for 4 weeks (FIG. 3c). […] Two days after the last injection mice were trained in the fear conditioning paradigm. […] Locomotor activity or basal anxiety was not altered in SB-injected mice (FIG. 8c).
The effect of sodiumbutyrate injection on learning, basal anxiety, explorative behavior and brain plasticity. C57BL/6J mice were subjected to fear conditioning and injected intraperitoneally [ip] with 1.2 g/kg sodiumbutyrate (SB, n=8) or saline (vehicle; n=8) immediately afterwards. […] C57BL/6J mice were implanted with microcannulae into the lateral brain ventricles (icv) and injected with either 100 ng SB, 50 ng TSA or vehicle immediately after fear conditioning (n=8/group). […] C57BL/6J were daily injected [ip] with SB or saline (n=8/group) for 4 weeks before all mice were subjected to the elevated plus maze and open field test. […] Immunoblots were quantified relative to the optical density of the vehicle-group (set to 1). […] The analysis was performed as described under FIG. 1g.
(§1) The effects of SAHA and MS-275, relative to sodium butyrate (SB), on the hippocampus dependent associative learning in wildtype mice.
Mice were injected 10 days with either 5 mg/kg of MS275 or 25 mg/kg of UW_WT-I—06 or UW_WT-I—05 before training and memory tests as described above. […] Andorfer, C. et al. Cell-cycle reentry and cell death in transgenic mice expressing nonmutant human tau isoforms. J neurosci 25, 5446-5454 (2005). • 2. Santacruz, K. et al. Tau suppression in a neurodegenerative mouse model improves memory function. Science 309, 476-481 (2005). • 3. Fischer, A., Sananbenesi, F., Pang, P. T., Lu, B. & Tsai, L. H. Opposing roles of transient and prolonged expression of p25 in synaptic plasticity and hippocampus-dependent memory. Neuron 48, 825-838 (2005). • 4. Cruz, J. C. & Tsai, L. H. Jekyll and Hyde kinase: roles for Cdk5 in brain development and disease. Curr Opin Neurobiol. 14, 390-394 (2004). • 5. Cruz, J. C., Tseng, H. C., Goldman, J. A., Shih, H. & Tsai, L. H. Aberrant Cdk5 activation by p25 triggers pathological events leading to neurodegeneration and neurofibrillary tangles. Neuron 40, 471-83 (2003). • 6. Nithianantharajah, J. & Hannan, A. J. Enriched environments, experience-dependent plasticity and disorders of the nervous system. Nat Rev Neurosci 7, 697-709 (2006). • 7. Kim, J. J. & Fanselow, M. S. Modality-specific retrograde amnesia of fear. Science 256, 675-7 (1992). • 8. Gilmore, E. C. & Herrup, K. Neocortical cell migration: GABAergic neurons and cells in layers I and VI move in a cyclin-dependent kinase 5-independent manner. J Neurosci 21, 9690-700 (2001). • 9. […]

For assay [2], the system named is c-fos. Nature of the assay: c-fos positive cells after fear conditioning training. Format: in vivo, mice. Conditions: compared to saline treated group. An excerpt:
(§2) HDAC inhibitors regulate neuronal activity and neurogenesis in dentate gyrus. […] Thus, activity induced c-fos expression may also be used to evaluate the effect of HDAC inhibitors on hippocampus dependent learning. FIG. 17d is a bar graph depicting the significant enhancement by SAHA.

Assay [3] relates to dentate gyrus. Briefly: Neurogenesis in dentate gyrus (BrdU, DCX). The arrangement: species or system mice. Conditions: mouse, in vivo.
Description: as §2

Assay [4] concerns lys9lys 14 on histone 3 and lys5 on histone 4. Briefly: Histone acetylation in brain lysates of treated mice. Conditions: compared to saline treated mice. Format: in vivo. The method, then: Immunoblotting and staining: Lysates for immunoblotting were prepared as described by Fischer et al. (3). To isolate histones, brain tissue was homogenized in TX-buffer (50 mM Tris HCL, 150 mM NACL, 2 mM EDTA, 1% Triton-100) and incubated at 4° C. for 15 min prior to centrifugation at 200 rpm for 10 min. After a wash-step in TX-buffer the pellet was dissolved in TX-buffer containing 0.2M HCl and incubated on ice for 30 min, before a second centrifugation at 10000 rpm for 10 min. The supernatant was either dialysed or directly used for immunoblotting. Antibodies were used in 1:1000 concentrations. All antibodies detecting histones and anti-PSD-95 were form Upstate (Lake Placid, N.Y.). Anti-synaptophysin (SVP38) was from Sigma. Anti-neuronal nuclei (neuN) and anti-growth associated protein (Gap43) were from Chemicon (Temecula, Calif.) and anti-N-cadherin, anti-β-catenin were from Santa Cruz (Santa Cruz, Calif.). Immunostaining was performed as described by Fischer et al. (3). Antibodies mentioned above were used in a 1:500 dilution. Anti-MAP-2 antibody (Sigma) was used in a 1:200 dilution.
as §1

`CC(/C=C/C(=O)NO)=C\[C@@H](C)C(=O)c1ccc(N(C)C)cc1` [TSA, trichostatin A]: the “freezing behavior during the memory test” value in assay [1] (icv 100 ng SB or 50 ng TSA immediately after fear conditioning, test 24 h later, P<0.0001) is reported as “more freezing behavior than vehicle injected mice”. Also, the associative learning entry in assay [1] (wild type mice, intraperitoneal [ip] and intracerebroventricular [icv] injections) is recorded as “significantly facilitated associative learning”.

In the case of `O=C(CCCCCCC(=O)Nc1ccccc1)NO` [SAHA, suberoylanilide hydroxamic acid], the “number of c-fos positive cells” value in assay [2] was “higher number of c-fos positive cells”. Besides, in assay [3], the “BrdU positive cells in the subgranule zone of the dentate gyrus” value is reported as “increased BrdU positive cells” and the “DCX (marker for newly generated neurons) labeled cells in dentate gyrus” value was “labeled more cells”. In assay [4], the “acetylation of lys9lys 14 on histone 3 and lys5 on histone 4 in brain lysates” value was “increased acetylation of lys9lys 14 on histone 3 and lys5 on histone 4”. In assay [1], the “associative learning, contextual fear conditioning paradigm” value is “more potent than SB in facilitating associative learning”.

Consider `Nc1ccccc1NC(=O)c1ccc(CNC(=O)OCc2cccnc2)cc1` [MS-275], for which, in assay [2], the “number of c-fos positive cells” value is reported as “lower number of c-fos positive cells”. In assay [3], the “DCX (marker for newly generated neurons) labeled cells in dentate gyrus” value is “not”. Also, the “acetylation of lys9lys 14 on histone 3 and lys5 on histone 4 in brain lysates” value in assay [4] was “increased acetylation of lys9lys 14 on histone 3 and lys5 on histone 4”. Further, the “associative learning, contextual fear conditioning paradigm” value in assay [1] is given as “does not facilitate associative learning”.

For the origin of these results see patent publication US8088951B2, “Epigenetic mechanisms re-establish access to long-term memory after neuronal loss” (Massachusetts Institute of Technology, priority 2006, dated 2012).
